Measured values reported in the supplement of paper PMC4862054.
Values joined by “and” are separate entries in the source; they are usually repeats but may differ in a detail not shown here. Equal entries are not always repeated.

What was measured:
Test in all cases: normalised viability (% of control), CellTiter-Blue; higher = more viable cells (about 100 = DMSO control)
Conditions in all cases: incubation time: 72 h
CAL-85-1 [1] = system: CAL-85-1
Method: (§1)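 DSRT, CellTiter-Blue viability, 72 h incubation. Signal is normalised to DMSO and benzethonium chloride controls. Value is the normalised response at dose 7.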

CAL-51 [2] = system: CAL-51
Method: as §1

HDQ-P1 [3] = system: HDQ-P1
Method: as §1

DU-4475 [4] = system: DU-4475
Method: as §1

CAL-148 [5] = system: CAL-148
Method: as §1

MDA-MB-453 [6] = system: MDA-MB-453
Method: as §1

CAL-85-1 [7] = system: CAL-85-1; remark: listed apart in the source
Method: (§2)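 DSRT, CellTiter-Blue viability, 72 h incubation. Signal is normalised to DMSO and benzethonium chloride controls. Value is the normalised response at dose 8.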

CAL-51 [8] = system: CAL-51; remark: listed apart in the source
Method: as §2

HDQ-P1 [9] = system: HDQ-P1; remark: listed apart in the source
Method: as §2

DU-4475 [10] = system: DU-4475; remark: listed apart in the source
Method: as §2

CAL-148 [11] = system: CAL-148; remark: listed apart in the source
Method: as §2

MDA-MB-453 [12] = system: MDA-MB-453; remark: listed apart in the source
Method: as §2

CAL-85-1 [13] = system: CAL-85-1; remark: listed apart in the source
Method: (§3)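 DSRT, CellTiter-Blue viability, 72 h incubation. Signal is normalised to DMSO and benzethonium chloride controls. Value is the normalised response at dose 9.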

CAL-51 [14] = system: CAL-51; remark: listed apart in the source
Method: as §3

HDQ-P1 [15] = system: HDQ-P1; remark: listed apart in the source
Method: as §3

DU-4475 [16] = system: DU-4475; remark: listed apart in the source
Method: as §3

CAL-148 [17] = system: CAL-148; remark: listed apart in the source
Method: as §3

MDA-MB-453 [18] = system: MDA-MB-453; remark: listed apart in the source
Method: as §3

CAL-85-1 [19] = system: CAL-85-1; remark: listed apart in the source
Method: (§4)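 DSRT, CellTiter-Blue viability, 72 h incubation. Signal is normalised to DMSO and benzethonium chloride controls. Value is the normalised response at dose 6.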

CAL-51 [20] = system: CAL-51; remark: listed apart in the source
Method: as §4

HDQ-P1 [21] = system: HDQ-P1; remark: listed apart in the source
Method: as §4

DU-4475 [22] = system: DU-4475; remark: listed apart in the source
Method: as §4

CAL-148 [23] = system: CAL-148; remark: listed apart in the source
Method: as §4

MDA-MB-453 [24] = system: MDA-MB-453; remark: listed apart in the source
Method: as §4

SMILES | normalised viability (CAL-85-1 [7]) | normalised viability (CAL-51 [8]) | normalised viability (HDQ-P1 [9]) | normalised viability (DU-4475 [10]) | normalised viability (CAL-148 [11]) | normalised viability (MDA-MB-453 [12]) | also measured
CC(=O)c1c(C)c2cnc(Nc3ccc(N4CCNCC4)cn3)nc2n(C2CCCC2)c1=O (1000 nM) |  |  |  |  |  |  | normalised viability (CAL-85-1 [1]): 98.9%; normalised viability (CAL-51 [2]): 72.8%; normalised viability (HDQ-P1 [3]): 99.5%; normalised viability (DU-4475 [4]): 94.6%; normalised viability (CAL-148 [5]): 107%; normalised viability (MDA-MB-453 [6]): 66.2%
CC(=O)c1c(C)c2cnc(Nc3ccc(N4CCNCC4)cn3)nc2n(C2CCCC2)c1=O (3000 nM) | 102% | 69.6% | 120% | 102% | 103% | 63.6% | 
Cn1cc(C2=Nc3cc(NC(=O)C(N)C4CCCCC4)cc4c3C2=CNNC4=O)cn1 (stereo not given) (3000 nM) | 50.7% | 80.6% | 51.6% | 62.3% | 21.9% | 25.2% | 
CC(=O)c1c(C)c2cnc(Nc3ccc(N4CCNCC4)cn3)nc2n(C2CCCC2)c1=O (10000 nM) |  |  |  |  |  |  | normalised viability (CAL-85-1 [13]): 78.2%; normalised viability (CAL-51 [14]): 50.8%; normalised viability (HDQ-P1 [15]): 93.5%; normalised viability (DU-4475 [16]): 85.9%; normalised viability (CAL-148 [17]): 87.6%; normalised viability (MDA-MB-453 [18]): 61.1%
COc1cc2c(cc1O)CC[C@@H]1[C@@H]2CC[C@]2(C)[C@@H](O)CC[C@@H]12 [2-methoxyestradiol] (3000 nM) | 41.2% | 42.2% | 56.7% | 36.1% | 29.6% | 34.4% | 
Cc1sc2c(c1C)C(c1ccc(Cl)cc1)=N[C@@H](CC(=O)OC(C)(C)C)c1nnc(C)n1-2 [(+)JQ1] (3000 nM) | 40.5% | 74.3% | 94.8% | 0.9% | 36.9% | 23.3% | 
Oc1ncnc2[nH]ncc12 [Allopurinol] (3000 nM) | 103% | 104% | 94.6% | 113% | 108% | 108% | 
O=C1CN2Cc3c(ccc(Cl)c3Cl)N=C2N1 [Anagrelide] (3000 nM) | 84.8% | 78.4% | 85.4% | 97.8% | 94.8% | 112% | 
Nc1ncn([C@@H]2O[C@H](CO)[C@@H](O)[C@H]2O)c(=O)n1 [Azacitidine] (3000 nM) | 93.8% | 109% | 105% | 99.7% | 89.5% | 101% | 
O=NN(CCCl)C(=O)NCCCl [Carmustine] (3000 nM) | 95.7% | 102% | 108% | 90.5% | 102% | 118% | 
CC1=C2C[C@H]3[C@@H](CC=C4C[C@@H](O)CC[C@@]43C)[C@@H]2CC[C@]12O[C@@H]1C[C@H](C)CN[C@H]1[C@H]2C [Cyclopamine] (3000 nM) | 99.7% | 109% | 105% | 122% | 111% | 105% | 
CC(=O)O[C@@]12CO[C@@H]1C[C@H](O)[C@@]1(C)C(=O)[C@H](O)C3=C(C)[C@@H](OC(=O)[C@H](O)[C@@H](NC(=O)OC(C)(C)C)c4ccccc4)C[C@@](O)([C@@H](OC(=O)c4ccccc4)[C@H]21)C3(C)C [Docetaxel] (300 nM) | 30.9% and 28.7% | 17.9% and 12% | 37.9% and 31.2% | 12.4% and 8.14% | 22.2% and 19.1% | 24.4% and 23.9% | 
C[C@]12CC[C@@H]3c4ccc(OC(=O)N(CCCl)CCCl)cc4CC[C@H]3[C@@H]1CC[C@@H]2O [Estramustine] (99 nM) |  |  |  |  |  |  | normalised viability (CAL-85-1 [1]): 102%; normalised viability (CAL-51 [2]): 85.8%; normalised viability (HDQ-P1 [3]): 97.1%; normalised viability (DU-4475 [4]): 106%; normalised viability (CAL-148 [5]): 119%; normalised viability (MDA-MB-453 [6]): 99.7%
C[C@]12CC[C@@H]3c4ccc(OC(=O)N(CCCl)CCCl)cc4CC[C@H]3[C@@H]1CC[C@@H]2O [Estramustine] (297 nM) | 86.5% | 92.5% | 93.6% | 118% | 97.5% | 101% | 
C[C@]12CC[C@@H]3c4ccc(OC(=O)N(CCCl)CCCl)cc4CC[C@H]3[C@@H]1CC[C@@H]2O [Estramustine] (990 nM) |  |  |  |  |  |  | normalised viability (CAL-85-1 [13]): 110%; normalised viability (CAL-51 [14]): 84%; normalised viability (HDQ-P1 [15]): 99.5%; normalised viability (DU-4475 [16]): 89.9%; normalised viability (CAL-148 [17]): 111%; normalised viability (MDA-MB-453 [18]): 101%
CC1(C)CNc2cc(NC(=O)c3cccnc3NCc3ccncc3)ccc21 [Motesanib] (3000 nM) | 86.3% | 104% | 72.7% | 101% | 86.7% | 80.8% | 
C[C@]1(O)C[C@@H](c2nc(-c3ccc4ccc(-c5ccccc5)nc4c3)c3c(N)nccn32)C1 [OSI-906] (1000 nM) |  |  |  |  |  |  | normalised viability (CAL-85-1 [1]): 91.9%; normalised viability (CAL-51 [2]): 86.9%; normalised viability (HDQ-P1 [3]): 55.5%; normalised viability (DU-4475 [4]): 77.3%; normalised viability (CAL-148 [5]): 95%; normalised viability (MDA-MB-453 [6]): 93.7%
C[C@]1(O)C[C@@H](c2nc(-c3ccc4ccc(-c5ccccc5)nc4c3)c3c(N)nccn32)C1 [OSI-906] (3000 nM) | 85.5% | 88.3% | 50.5% | 106% | 95.6% | 73.9% | 
C[C@]1(O)C[C@@H](c2nc(-c3ccc4ccc(-c5ccccc5)nc4c3)c3c(N)nccn32)C1 [OSI-906] (10000 nM) |  |  |  |  |  |  | normalised viability (CAL-85-1 [13]): 67.4%; normalised viability (CAL-51 [14]): 81%; normalised viability (HDQ-P1 [15]): 32.4%; normalised viability (DU-4475 [16]): 92.6%; normalised viability (CAL-148 [17]): 118%; normalised viability (MDA-MB-453 [18]): 65.9%
CC[C@@H]1C(=O)OC[C@@H]1Cc1cncn1C [Pilocarpine] (12000 nM) | 92.5% | 107% | 127% | 88% | 105% | 117% | 
COc1cc(F)c(F)c(Nc2ccc(I)cc2F)c1NS(=O)(=O)C1(C[C@H](O)CO)CC1 [RDEA119] (1000 nM) |  |  |  |  |  |  | normalised viability (CAL-85-1 [1]): 54.1%; normalised viability (CAL-51 [2]): 79.3%; normalised viability (HDQ-P1 [3]): 40.8%; normalised viability (DU-4475 [4]): 0.64%; normalised viability (CAL-148 [5]): 87.7%; normalised viability (MDA-MB-453 [6]): 67%
COc1cc(F)c(F)c(Nc2ccc(I)cc2F)c1NS(=O)(=O)C1(C[C@H](O)CO)CC1 [RDEA119] (3000 nM) | 33.4% | 69.9% | 36.1% | 1.46% | 75.7% | 54.9% | 
COc1cc(F)c(F)c(Nc2ccc(I)cc2F)c1NS(=O)(=O)C1(C[C@H](O)CO)CC1 [RDEA119] (10000 nM) |  |  |  |  |  |  | normalised viability (CAL-85-1 [13]): 29.9%; normalised viability (CAL-51 [14]): 60.4%; normalised viability (HDQ-P1 [15]): 51.1%; normalised viability (DU-4475 [16]): 0.93%; normalised viability (CAL-148 [17]): 71.5%; normalised viability (MDA-MB-453 [18]): 36.1%
CC(C)(C)c1cnc(CSc2cnc(NC(=O)C3CCNCC3)s2)o1 [SNS-032] (3000 nM) | 3.68% | 8.52% | 14.4% | 4.8% | 18.8% | 15.8% | 
Cn1cnc2c(F)c(Nc3ccc(Br)cc3Cl)c(C(=O)NOCCO)cc21 [Selumetinib] (3000 nM) | 59.3% | 86.9% | 76.5% | 0.16% | 91.9% | 108% | 
Nc1nc2[nH]cnc2c(=S)[nH]1 [Thioguanine] (3000 nM) | 75.7% | 103% | 86.4% | 115% | 78.4% | 110% | 
O=P(O)(O)C(O)(Cn1ccnc1)P(=O)(O)O [Zoledronic acid] (300 nM) |  |  |  |  |  |  | normalised viability (CAL-85-1 [19]): 98.4%; normalised viability (CAL-51 [20]): 104%; normalised viability (HDQ-P1 [21]): 68.9%; normalised viability (DU-4475 [22]): 115%; normalised viability (CAL-148 [23]): 93.6%; normalised viability (MDA-MB-453 [24]): 93.7%
O=P(O)(O)C(O)(Cn1ccnc1)P(=O)(O)O [Zoledronic acid] (1000 nM) |  |  |  |  |  |  | normalised viability (CAL-85-1 [1]): 88.4%; normalised viability (CAL-51 [2]): 101%; normalised viability (HDQ-P1 [3]): 95.7%; normalised viability (DU-4475 [4]): 120%; normalised viability (CAL-148 [5]): 92.5%; normalised viability (MDA-MB-453 [6]): 86.8%
O=P(O)(O)C(O)(Cn1ccnc1)P(=O)(O)O [Zoledronic acid] (3000 nM) | 96.8% | 113% | 89.4% | 121% | 90.1% | 111% | 
O=P(O)(O)C(O)(Cn1ccnc1)P(=O)(O)O [Zoledronic acid] (10000 nM) |  |  |  |  |  |  | normalised viability (CAL-85-1 [13]): 90.4%; normalised viability (CAL-51 [14]): 103%; normalised viability (HDQ-P1 [15]): 106%; normalised viability (DU-4475 [16]): 98%; normalised viability (CAL-148 [17]): 96.1%; normalised viability (MDA-MB-453 [18]): 82.3%
